According to US20230165252A1, “ACTIVE COMPOUND COMBINATIONS” (Bayer Aktiengesellschaft, priority 2020, published 2023):

Assay: Measurement of Log P values by HPLC on reversed phase columns (EEC directive 79/831 Annex V.A8), methods [a], [b], [c]
Type: physicochemical
Settings: HPLC method [a]
Protocol: Measurement of Log P values as provided herein was performed according to EEC directive 79/831 Annex V.A8 by HPLC (High Performance Liquid Chromatography) on reversed phase columns with the following methods: • ^[a]
In the case of O=C(NCC(F)c1ccc(Br)cc1Cl)c1cc(Cl)nnc1Oc1cccc(C2CC2)c1 (racemic) [I-362], the LogP is reported as 4.87^[a].
With Cc1nnc(Oc2cccc(C(F)F)c2F)c(C(=O)NCC(F)c2ccc(Br)cc2Cl)c1C (racemic) [I-369] the LogP was 3.65^[a].

Same assay, conditions: HPLC on reversed phase column, method [a]
For Cc1cc(C(=O)NC2CCOc3c(C)cccc32)c(Oc2cccc(C(F)(F)F)c2)nn1 (racemic) [I-107], the LogP was 3.65^[a].
With Cc1ccc(C(F)CNC(=O)c2c(Oc3cccc(C4CC4)c3F)nnc(C)c2C)c(C)c1 (racemic) [I-836] the LogP was 3.78^[a].

Same assay, conditions: method [a]
With Cc1ccc(C(F)(F)CNC(=O)c2c(Oc3cccc(C(F)(F)F)c3)nnc(Cl)c2NC2CC2C2CC2)c(C)c1 (mixture of isomers) [I-812] the LogP was 4.87^[a].
For O=C(NC1CCCc2ccsc21)c1cc(Cl)nnc1Cl (racemic) [Compound 3-16], the LogP was 2.60^[a].
With CC(NC(=O)c1cc(Cl)nnc1Cl)c1cn(C)c2ccccc12 (racemic) [Compound 3-18] the LogP was 2.71^[a].
With Cc1ccc(C(F)CNC(=O)c2c(Cl)nnc(Cl)c2C)c(Cl)c1 (racemic) [Compound 3-23] the LogP was 3.22^[a].
For O=C(NCC1CNc2ccccc21)c1cc(Cl)nnc1Oc1cccc(C(F)(F)F)c1 (racemic) [I-436], the LogP was 2.42^[a].
In the case of O=C(NC1CCCc2sc(Cl)cc21)c1cc(Cl)nnc1Oc1cccc(C(F)(F)F)c1 (racemic) [I-639], the LogP is reported as 4.68^[a].
In the case of Cc1ccc(C(F)(F)CNC(=O)c2c(Oc3cccc(C(F)(F)F)c3)nnc(Cl)c2OCC2CC2(F)F)c(C)c1 (racemic) [I-683], the LogP is reported as 4.95^[a].
For O=C(NCC(F)c1ccc(Cl)cc1Cl)c1c(Oc2cccc(C3CC3)c2F)nnc(Cl)c1I (racemic) [I-758], the LogP was 4.73^[a].
In the case of Cc1ccc(C(F)(F)CNC(=O)c2cc([S+](C)[O-])nnc2Oc2cccc(C(F)(F)F)c2)c(C)c1 (racemic) [I-781], the LogP is reported as 3.65^[a].
For O=C(NCC(F)c1ccc(Cl)cc1Cl)c1c(Oc2cccc(C3CC3)c2F)nnc(Cl)c1O (racemic) [I-782], the LogP was 5.13^[a].
In the case of Cc1ccc(C(F)(F)CNC(=O)c2cc(C3CCOC3)nnc2Oc2cccc(C(F)(F)F)c2)c(C)c1 (racemic) [I-794], the LogP is reported as 3.78^[a].

Same assay, conditions: method [a]: LC-UV, acidic range, 0.1% formic acid in water and acetonitrile as eluent (10% to 95% acetonitrile); Table 3, compounds of formula (1)
For Cc1c(Cl)nnc(Oc2cccc(C3CC3(F)F)c2)c1C(=O)O (racemic) [Compound 1-105], the LogP was 1.69^[a].
In the case of Cc1c(Cl)nnc(Oc2cccc(C3CC3)c2F)c1C(=O)O [Compound 1-005], the LogP is reported as 1.84^[a].
With N#Cc1cc(C(=O)O)c(Oc2cccc(C(F)(F)F)c2)nn1 [Compound 1-007] the LogP was 1.74^[a].
With Cc1nnc(Oc2cccc(C(F)(F)F)c2F)c(C(=O)O)c1C [Compound 1-009] the LogP was 1.40^[a].
For CC(C)OC(=O)c1cc(Cl)nnc1Oc1cccc(F)c1F [Compound 1-011], the LogP was 3.65^[a].
With O=C(O)c1cc(C2CC2)nnc1Oc1cccc(C(F)F)c1 [Compound 1-012] the LogP was 1.68^[a].
For Cc1nnc(Oc2cccc(C(F)F)c2F)c(C(=O)O)c1C [Compound 1-013], the LogP was 0.96^[a].
For C#Cc1cccc(Oc2nnc(Cl)cc2C(=O)O)c1 [Compound 1-017], the LogP was 1.50^[a].
With Cc1nnc(Oc2cccc(Cl)c2)c(C(=O)O)c1C [Compound 1-018] the LogP was 0.80^[a].
For Cc1cc(C(=O)O)c(Oc2cncc(C(F)(F)F)c2)nn1 [Compound 1-019], the LogP was 1.01^[a].
With O=C(O)c1cc(-c2ccncc2Cl)nnc1Oc1cccc(C(F)F)c1F [Compound 1-020] the LogP was 1.86^[a].
For O=C(O)c1cc(N2CCCC2)nnc1Oc1cccc(C(F)(F)F)c1 [Compound 1-021], the LogP was 1.08^[a].
With O=C(O)c1cc(Cl)nnc1Oc1cccc(F)c1F [Compound 1-024] the LogP was 1.65^[a].
In the case of O=C(O)c1cc(Cl)nnc1Oc1cncc(C(F)(F)F)c1 [Compound 1-025], the LogP is reported as 1.31^[a].
In the case of Cc1nnc(Oc2cccc(C3CC3)c2)c(C(=O)O)c1C [Compound 1-037], the LogP is reported as 1.10^[a].
For O=C(O)c1cc(C2CC2)nnc1Oc1cccc(C(F)(F)F)c1 [Compound 1-043], the LogP was 1.90^[a].
For O=C(O)c1cc(Cl)nnc1Oc1cccc(Br)c1 [Compound 1-048], the LogP was 1.66^[a].
In the case of CC(C)OC(=O)c1cc(-n2ccnc2)nnc1Oc1cccc(C(F)(F)F)c1 [Compound 1-050], the LogP is reported as 2.55^[a].
With O=C(O)c1cc(-c2ccncc2Cl)nnc1Oc1cccc(F)c1F [Compound 1-053] the LogP was 1.22^[a].
For O=C(O)c1cc(C(F)(F)F)nnc1Oc1cccc(C(F)(F)F)c1 [Compound 1-057], the LogP was 2.27^[a].
With CC(C)OC(=O)c1cc(-c2ccncc2Cl)nnc1Oc1cccc(F)c1F [Compound 1-074] the LogP was 3.65^[a].
For Cc1nnc(Oc2cccc(C3CC3)c2F)c(C(=O)O)c1C [Compound 1-077], the LogP was 1.31^[a].
With COC(=O)c1c(Oc2cccc(C(F)(F)F)c2)nnc(Cl)c1-n1cccn1 [Compound 1-084] the LogP was 3.53^[a].
For CC(=O)c1cccc(Oc2nnc(Cl)cc2C(=O)O)c1 [Compound 1-093], the LogP was 1.01^[a].
With Cc1cc(C(=O)O)c(Oc2cccc(C(F)F)c2)nn1 [Compound 1-098] the LogP was 1.36^[a].
For CC(C)OC(=O)c1cc(Cl)nnc1Oc1cncc(C(F)F)c1 [Compound 1-102], the LogP was 2.82^[a].

Same assay, conditions: method [a]: LC-UV, acidic range, 0.1% formic acid in water and acetonitrile as eluent; Table 5, compounds of formula (2)
In the case of NCC(F)c1ccc(I)cc1 (racemic) [Compound 2-05], the LogP is reported as 0.73^[a].
For Cc1cc(C(F)F)ccc1C(F)CN (racemic) [Compound 2-06], the LogP was 0.69^[a].
With NCC(F)c1ccc(C2CC2)cc1Cl (racemic) [Compound 2-07] the LogP was 1.15^[a].

Same assay, conditions: method [b]: LC-UV, neutral range, 0.001 molar ammonium acetate solution in water and acetonitrile as eluent (10% to 95% acetonitrile); Table 3, compounds of formula (1)
For O=C(O)c1cc(Cl)nnc1Oc1cccc(C(F)(F)F)n1 [Compound 1-031], the LogP was 0.69^[b].
In the case of O=C(O)c1cc(Cl)nnc1Oc1cncc(C2CC2)c1 [Compound 1-051], the LogP is reported as 0.59^[b].

Same assay, conditions: reversed-phase HPLC column, method [a]
Work on CC(=O)c1cc(C(=O)NCC(F)c2ccc(Br)cc2Cl)c(Oc2cccc(C(F)(F)F)c2)nn1 (racemic) [Compound I-605, 6-acetyl-N-[rac-2-(4-bromo-2-chloro-phenyl)-2-fluoro-ethyl]-3-[3-(trifluoromethyl)phenoxy]pyridazine-4-carboxamide] yielded a chromatographic logP of 4.49.

Same assay, conditions: reversed-phase HPLC column, method [a]: LC-UV, acidic range, 0.1% formic acid in water and acetonitrile as eluent (10% to 95% acetonitrile); Table 3, compounds of formula (1)
COC(=O)c1c(Oc2cccc(C(F)(F)F)c2)nnc(Cl)c1C1CC1 [Compound 1-001] gave a chromatographic logP of 3.94.
In the case of Cc1c(Cl)nnc(Oc2cccc(Cl)c2)c1C(=O)O [Compound 1-002, 6-chloro-3-(3-chlorophenoxy)-5-methyl-pyridazine-4-carboxylic acid], the chromatographic logP is reported as 1.39.
In the case of CSc1cc(C(=O)O)c(Oc2cccc(C(F)(F)F)c2)nn1 [Compound 1-004, 6-methylsulfanyl-3-[3-(trifluoromethyl)phenoxy]pyridazine-4-carboxylic acid], the chromatographic logP is reported as 2.25.
COC(=O)c1c(Oc2cccc(C(F)F)c2F)nnc(C)c1C [Compound 1-006] gave a chromatographic logP of 2.64.
Compound COCCc1c(Cl)nnc(Oc2cccc(C(F)(F)F)c2)c1C(=O)O [Compound 1-026, 6-chloro-5-(2-methoxyethyl)-3-[3-(trifluoromethyl)phenoxy]pyridazine-4-carboxylic acid] has a chromatographic logP of 1.74.
In the case of COC(=O)c1c(Oc2cccc(Cl)c2)nnc(Cl)c1C [Compound 1-033, methyl 6-chloro-3-(3-chlorophenoxy)-5-methyl-pyridazine-4-carboxylate], the chromatographic logP is reported as 3.37.
In the case of CCOC(=O)c1cc(C)nnc1Oc1cncc(C(F)(F)F)c1 [Compound 1-036], the chromatographic logP is reported as 2.37.
COC(=O)c1c(Oc2cccc(Cl)c2)nnc(C)c1C [Compound 1-042] showed a chromatographic logP of 2.71.
COC(=O)c1c(Oc2cccc(C(F)(F)F)c2)nnc(Cl)c1OC [Compound 1-046] showed a chromatographic logP of 3.52.
With COC(=O)c1c(Oc2cccc(C(F)(F)F)c2)nnc(Cl)c1Cl [Compound 1-049] the chromatographic logP was 3.86.
COC(=O)c1c(Oc2cccc(C(F)F)c2F)nnc(Cl)c1Cl [Compound 1-055] showed a chromatographic logP of 3.51.
CCOC(=O)c1c(Oc2cccc(C3CC3)c2)nnc(Cl)c1Cl [Compound 1-056] gave a chromatographic logP of 4.41.
Work on CCOC(=O)c1c(Oc2cccc(C(F)(F)F)c2)nnc(Cl)c1OCC [Compound 1-060] yielded a chromatographic logP of 4.23.
COC(=O)c1c(Oc2cccc(C(F)(F)F)c2F)nnc(Cl)c1Cl [Compound 1-064] showed a chromatographic logP of 3.96.
For C=Cc1c(Cl)nnc(Oc2cccc(C(F)(F)F)c2)c1C(=O)OC [Compound 1-069, methyl 6-chloro-3-[3-(trifluoromethyl)phenoxy]-5-vinyl-pyridazine-4-carboxylate], the chromatographic logP was 3.94.
In the case of COC(=O)c1cc(Cl)nnc1Oc1cccc(C(F)(F)F)n1 [Compound 1-071], the chromatographic logP is reported as 2.69.
Work on COC(=O)c1cc(Cl)nnc1Oc1cccc(C(F)(F)F)c1 [Compound 1-079] yielded a chromatographic logP of 3.27.
In the case of CCOC(=O)c1cc(SC)nnc1Oc1cccc(C(F)(F)F)c1 [Compound 1-083], the chromatographic logP is reported as 3.96.
In the case of COC(=O)c1c(Oc2cccc(C(F)(F)F)c2)nnc(Cl)c1-c1ccccc1 [Compound 1-085], the chromatographic logP is reported as 4.25.
In the case of COC(=O)c1cc(Cl)nnc1Oc1cncc(Br)c1 [Compound 1-086], the chromatographic logP is reported as 2.33.
In the case of CCOC(=O)c1cc(Cl)nnc1Oc1cncc(C(F)(F)F)c1 [Compound 1-088], the chromatographic logP is reported as 3.
COC(=O)c1cc(Cl)nnc1Oc1cccc(C2CC2)c1F [Compound 1-099] showed a chromatographic logP of 3.45.
Compound COC(=O)c1cc(C)nnc1Oc1cccc(C2CC2)c1F [Compound 1-100] has a chromatographic logP of 2.89.
With COC(=O)c1c(Oc2cccc(C3CC3)c2F)nnc(Cl)c1C [Compound 1-101] the chromatographic logP was 3.7.
Compound CCOC(=O)c1cc(C)nnc1Oc1cccc(C2CC2)c1F [Compound 1-112] has a chromatographic logP of 3.29.

Same assay, conditions: reversed-phase HPLC column; method [b]: LC-UV, neutral range, 0.001 molar ammonium acetate solution in water and acetonitrile as eluent (10% to 95% acetonitrile); Table 3, compounds of formula (1)
In the case of CCOC(=O)c1cc(Cl)nnc1Oc1cncc(C2CC2)c1 [Compound 1-076], the chromatographic logP is reported as 2.6.
